Experimental data published in US11826467B2, “W/O/W microemulsions for ocular administration” (University of Tennessee Research Foundation, priority 2017, dated 2023).

Assays:
IOP [1] = assay: Efficacy of other gabapentinoid drugs (IOP, viscous eye drops); assay type: in vivo; details: 0.9% drug in 2% HPMC viscous eye drops, C57Bl/6 J mice
Description: To determine if other members of the gabapentinoid drug family are also efficacious in reducing IOP, we compared the efficacy of 0.9% pregabalin, 0.9% 2-phenylglycine and 0.9% gabapentin in 2% HPMC viscous eye drops in C57Bl/6 J mice.
2-phenylglycine (FIG. 28) and gabapentin (FIG. 29) were not as efficacious as pregabalin although they both had maximum IOP reductions of −8% and areas under the curve of −14% hr.

IOP [2] = assay: IOP lowering by pregabalin HPMC eye drops in rabbits; assay type: in vivo; details: 0.9% pregabalin in HPMC eye drops, Dutch belted rabbits
Description: FIG. 5: Pregabalin (0.9%) suspended in hydroxypropyl methylcellulose (HPMC) lowers IOP by 23% in Dutch belted rabbits (n=5).
(§1) It is also modestly present in the CM. Based upon these collective data, it appears that CACNA2D1 regulates IOP (FIG. 3). Pregabalin, or other gabapentinoid drugs, binds to the CACNA2D1 subunit of the calcium channel. The binding of the drug mitigates the flux of calcium through the α1 pore of the calcium channel, reducing the level of intracellular calcium. Since Cacna2d1 modulates IOP, pregabalin, a gabapentinoid drug with high specificity for CACNA2D1, was evaluated for its ability to affect IOP. […] The 1.2% pregabalin eye drops extended the duration of the IOP-lowering effect of pregabalin above that obtained with 0.6% pregabalin. Because there was no significant difference in the percent reduction of IOP between 0.9 and 1.2% pregabalin, we selected 0.9% as the minimal concentration required to produce the maximum reduction in IOP. Expanding this analysis to an additional species, we observed a similar IOP-lowering response (22.1±2.8%) in Dutch belted rabbits after instillation of 0.9% pregabalin eye drops (FIG. 5).

IOP [3] = assay: IOP lowering by pregabalin HPMC eye drops in mice (dose response); assay type: in vivo, B6 mice
Description: 0.9% is the minimum concentration that gives maximum effect (n=5).
as §1

[4] = cited from earlier work

NC(C(=O)O)c1ccccc1 (stereo not shown) [2-phenylglycine]
area under the curve (IOP [1]): −14 % hr
maximum IOP reduction (IOP [1]): −8%

CC(C)C[C@H](CN)CC(=O)O [Pregabalin, pregabalin]
IOP-lowering response (IOP reduction) (IOP [2]): 23%
IOP-lowering response (IOP reduction) (IOP [2]; listed as pregabalin): 22.1±2.8%
IOP-lowering effect compared to control (IOP [3]; drops containing 0.3% pregabalin suspended in HPMC, topical, B6 mice): no IOP-lowering effect
IOP reduction, dose dependence (IOP [3]; pregabalin 0.3-1.2% suspended in HPMC, eye drops, mice): dose-dependent manner
minimal concentration required to produce the maximum reduction in IOP (IOP [3]; pregabalin in HPMC eye drops, B6 mice, plateau, no significant difference 0.9 vs 1.2%): 0.9%
area under the curve (IOP [1]): 65 % hr
maximum IOP reduction (IOP [1]): 17.3%
time at which IOP returned to baseline (IOP [1]): ≤ 6 h

NCC1(CC(=O)O)CCCCC1 [gabapentin]
area under the curve (IOP [1]): −14 % hr
maximum IOP reduction (IOP [1]): −8%

NC(=O)c1ncn([C@@H]2O[C@H](CO)[C@@H](O)[C@H]2O)n1 [Ribavirin, 113-D-ribofuranosyl-1H-1,2,4-triazole-3-carboxamide]
solubility in water [4]: freely soluble in water
